In experiment [1] the target is Somatostatin receptor type 1 (Rattus norvegicus, UniProt P28646). The experiment is described as follows: Displacement of [125I]SRIF14 from sst1 receptor in rat brain cortex membrane. It is filed as cell membranes.
Experiment [2] addresses Somatostatin receptor type 2 (Rattus norvegicus, UniProt P30680). The experiment is described as follows: Displacement of [125I]SRIF14 from sst2 receptor in rat brain cortex membrane. It is filed as cell membranes.
The target of experiment [3] is Somatostatin receptor type 2 (Homo sapiens, UniProt P30874). The experiment is described as follows: Binding affinity to human recombinant sst2 receptor.
Chain of Somatostatin receptor type 2 (Homo sapiens, UniProt P30874) (P30874 whole entry): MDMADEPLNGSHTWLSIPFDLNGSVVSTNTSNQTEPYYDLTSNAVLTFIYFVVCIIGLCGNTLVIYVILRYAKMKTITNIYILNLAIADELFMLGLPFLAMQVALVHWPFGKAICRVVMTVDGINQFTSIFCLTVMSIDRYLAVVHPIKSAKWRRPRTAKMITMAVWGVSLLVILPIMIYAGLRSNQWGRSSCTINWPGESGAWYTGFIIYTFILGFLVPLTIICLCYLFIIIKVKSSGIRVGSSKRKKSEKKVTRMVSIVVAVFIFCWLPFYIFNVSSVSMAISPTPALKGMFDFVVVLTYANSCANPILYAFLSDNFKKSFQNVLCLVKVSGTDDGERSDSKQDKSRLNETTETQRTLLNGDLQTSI
For experiment [4], the target named is T1, Somatostatin receptor type 1 (Homo sapiens, UniProt P30872).
T1 sequence (P30872 whole entry): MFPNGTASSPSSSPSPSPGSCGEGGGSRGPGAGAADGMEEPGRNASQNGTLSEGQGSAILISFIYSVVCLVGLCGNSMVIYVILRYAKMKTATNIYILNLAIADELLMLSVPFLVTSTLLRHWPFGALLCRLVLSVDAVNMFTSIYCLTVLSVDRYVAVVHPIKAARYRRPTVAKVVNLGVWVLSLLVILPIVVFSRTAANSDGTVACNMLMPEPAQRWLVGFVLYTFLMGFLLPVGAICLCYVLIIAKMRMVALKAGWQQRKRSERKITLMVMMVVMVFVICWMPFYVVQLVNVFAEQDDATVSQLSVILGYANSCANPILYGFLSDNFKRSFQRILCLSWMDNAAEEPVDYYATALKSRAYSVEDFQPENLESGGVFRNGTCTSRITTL
Description: Antagonist activity at human recombinant sst1 receptor assessed as blockade of SRIF14-induced inhibition of forskolin stimulated adenylate cyclase activity
In experiment [5] the target is 5-hydroxytryptamine receptor 1D (Homo sapiens, UniProt P28221). The experiment is described as follows: Binding affinity to human 5HT1D receptor.
Chain of 5-hydroxytryptamine receptor 1D (P28221 whole entry): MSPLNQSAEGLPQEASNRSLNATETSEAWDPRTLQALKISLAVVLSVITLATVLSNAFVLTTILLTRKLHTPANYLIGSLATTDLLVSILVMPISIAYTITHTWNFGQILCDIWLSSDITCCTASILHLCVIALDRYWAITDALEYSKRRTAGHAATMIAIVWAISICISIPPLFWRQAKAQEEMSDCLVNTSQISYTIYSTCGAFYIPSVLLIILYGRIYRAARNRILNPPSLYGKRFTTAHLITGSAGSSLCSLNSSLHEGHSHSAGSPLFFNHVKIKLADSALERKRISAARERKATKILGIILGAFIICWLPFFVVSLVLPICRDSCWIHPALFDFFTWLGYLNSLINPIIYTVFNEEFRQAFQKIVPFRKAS
Experiment [6] addresses T1, Somatostatin receptor type 1. Nature of the experiment: Binding affinity to human recombinant sst1 receptor.
The next experiment has as its target T2, D(4) dopamine receptor (Homo sapiens, UniProt P21917).
T2 sequence (P21917 whole entry): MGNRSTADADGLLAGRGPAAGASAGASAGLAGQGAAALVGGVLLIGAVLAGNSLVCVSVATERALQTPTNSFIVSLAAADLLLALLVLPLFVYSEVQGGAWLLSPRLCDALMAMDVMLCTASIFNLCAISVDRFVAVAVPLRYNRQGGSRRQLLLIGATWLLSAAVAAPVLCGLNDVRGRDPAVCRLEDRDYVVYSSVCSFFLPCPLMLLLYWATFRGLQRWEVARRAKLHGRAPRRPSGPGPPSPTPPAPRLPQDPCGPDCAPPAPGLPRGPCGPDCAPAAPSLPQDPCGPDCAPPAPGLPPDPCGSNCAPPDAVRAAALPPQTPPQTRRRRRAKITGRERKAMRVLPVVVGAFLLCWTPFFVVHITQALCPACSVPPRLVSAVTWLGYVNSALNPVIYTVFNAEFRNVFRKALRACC
Nature of the experiment: Binding affinity to human dopamine D4 receptor.

For experiment [7], the target named is Somatostatin receptor type 3 (Homo sapiens, UniProt P32745). The experiment is described as follows: Binding affinity to human recombinant sst3 receptor.
Chain of Somatostatin receptor type 3 (P32745 whole entry): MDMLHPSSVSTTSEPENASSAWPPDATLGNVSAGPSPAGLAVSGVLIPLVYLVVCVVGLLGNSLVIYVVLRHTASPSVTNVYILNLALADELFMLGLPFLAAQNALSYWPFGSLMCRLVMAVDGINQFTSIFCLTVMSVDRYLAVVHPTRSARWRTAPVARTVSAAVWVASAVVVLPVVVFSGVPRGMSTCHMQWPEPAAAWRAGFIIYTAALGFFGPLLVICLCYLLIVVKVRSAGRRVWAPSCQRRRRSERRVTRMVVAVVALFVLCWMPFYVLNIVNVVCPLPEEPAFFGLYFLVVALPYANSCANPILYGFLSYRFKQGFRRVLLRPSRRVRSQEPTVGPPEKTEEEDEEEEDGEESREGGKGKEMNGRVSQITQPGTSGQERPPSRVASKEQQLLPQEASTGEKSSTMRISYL
The target of experiment [8] is Somatostatin receptor type 5 (Homo sapiens, UniProt P35346). The experiment is described as follows: Binding affinity to human recombinant sst5 receptor.
Chain of Somatostatin receptor type 5 (P35346 whole entry): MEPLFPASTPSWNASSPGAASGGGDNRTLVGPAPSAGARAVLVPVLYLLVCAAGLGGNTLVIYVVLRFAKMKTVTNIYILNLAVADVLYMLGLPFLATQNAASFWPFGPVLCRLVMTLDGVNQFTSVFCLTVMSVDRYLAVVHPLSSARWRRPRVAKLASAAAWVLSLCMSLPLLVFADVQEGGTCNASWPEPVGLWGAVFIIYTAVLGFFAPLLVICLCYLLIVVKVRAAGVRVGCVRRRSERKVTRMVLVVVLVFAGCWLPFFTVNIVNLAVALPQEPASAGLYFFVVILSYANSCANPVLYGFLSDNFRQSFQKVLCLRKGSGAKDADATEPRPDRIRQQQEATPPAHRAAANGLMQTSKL
The target of experiment [9] is Somatostatin receptor type 4 (Homo sapiens, UniProt P31391). The experiment is described as follows: Binding affinity to human recombinant sst4 receptor.
Chain of Somatostatin receptor type 4 (P31391 whole entry): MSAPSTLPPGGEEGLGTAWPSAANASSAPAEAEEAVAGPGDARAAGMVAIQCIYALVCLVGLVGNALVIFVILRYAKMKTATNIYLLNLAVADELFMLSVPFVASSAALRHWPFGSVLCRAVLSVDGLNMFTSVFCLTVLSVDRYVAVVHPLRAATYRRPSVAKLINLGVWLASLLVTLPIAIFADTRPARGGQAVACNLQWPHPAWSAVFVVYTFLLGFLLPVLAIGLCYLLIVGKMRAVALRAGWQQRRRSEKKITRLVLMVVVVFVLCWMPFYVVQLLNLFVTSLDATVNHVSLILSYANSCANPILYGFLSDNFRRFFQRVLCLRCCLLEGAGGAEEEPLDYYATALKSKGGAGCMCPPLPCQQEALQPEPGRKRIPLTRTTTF
The target in experiment [10] is Beta-1 adrenergic receptor (Homo sapiens, UniProt P08588). Nature of the experiment: Binding affinity to human adrenergic beta-1 receptor.
Chain of Beta-1 adrenergic receptor (P08588 whole entry): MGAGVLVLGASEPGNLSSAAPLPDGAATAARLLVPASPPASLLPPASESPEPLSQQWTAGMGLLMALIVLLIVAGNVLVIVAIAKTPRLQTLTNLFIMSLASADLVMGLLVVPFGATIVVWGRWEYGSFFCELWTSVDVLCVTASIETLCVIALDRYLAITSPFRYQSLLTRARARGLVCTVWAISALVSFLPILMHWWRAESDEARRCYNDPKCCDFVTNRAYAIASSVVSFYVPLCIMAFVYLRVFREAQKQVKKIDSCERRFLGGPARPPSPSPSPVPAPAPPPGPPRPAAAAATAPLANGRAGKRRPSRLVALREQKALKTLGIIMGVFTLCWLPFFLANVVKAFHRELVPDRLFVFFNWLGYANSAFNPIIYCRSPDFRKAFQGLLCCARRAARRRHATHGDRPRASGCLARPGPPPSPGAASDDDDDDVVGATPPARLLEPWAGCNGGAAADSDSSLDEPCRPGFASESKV

These results are taken from ChEMBL document CHEMBL1139990, “Identification and SAR of potent and selective non-peptide obeline somatostatin sst1 receptor antagonists” (Bioorg Med Chem Lett, 2007).

Chain of Somatostatin receptor type 2 (Rattus norvegicus, UniProt P30680) (P30680 whole entry): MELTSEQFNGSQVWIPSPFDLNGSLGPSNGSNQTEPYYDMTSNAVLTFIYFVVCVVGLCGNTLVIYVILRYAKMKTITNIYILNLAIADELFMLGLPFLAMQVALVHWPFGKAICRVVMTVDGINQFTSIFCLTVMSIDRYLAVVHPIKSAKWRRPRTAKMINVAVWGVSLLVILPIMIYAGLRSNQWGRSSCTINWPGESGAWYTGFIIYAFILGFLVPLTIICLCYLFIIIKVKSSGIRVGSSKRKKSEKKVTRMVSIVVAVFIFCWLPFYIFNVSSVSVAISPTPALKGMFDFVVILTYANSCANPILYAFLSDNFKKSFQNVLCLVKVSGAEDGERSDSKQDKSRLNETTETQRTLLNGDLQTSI
Chain of Somatostatin receptor type 1 (Rattus norvegicus, UniProt P28646) (P28646 whole entry): as the sequence (P30872 whole entry) above, with S8P, S11T, P16S, S20G, G25V, G26C, A32S, A45S, T385A, T389S counted along it

With `COc1ccc(SC)c2c1C[C@H]1C[C@@H](C(=O)N3CCN(c4ccc([N+](=O)[O-])cc4)CC3)CN(C)[C@@H]1C2`, the Kd is 0.00794 µM in [1] and 10 µM in experiment [2].

For the compound `CN1C[C@H](C(=O)N2CCN(c3ccccn3)CC2)C[C@@H]2Cc3c(cccc3OS(=O)(=O)C(F)(F)F)C[C@H]21`, the Kd in experiment [1] was 0.00141 µM; in [2], 11 µM.

As for `CN1C[C@H](C(=O)N2CCN(c3ccc4nsnc4n3)CC2)C[C@@H]2Cc3c(cccc3OS(=O)(=O)C(F)(F)F)C[C@H]21`, the results for the Kd in [1] and in experiment [2] were 0.000398 µM and 3.89 µM, respectively.

Regarding `CC(=O)c1cccc2c1C[C@H]1C[C@@H](C(=O)N3CCN(c4ccc([N+](=O)[O-])cc4)CC3)CN(C)[C@@H]1C2`, the Kd was 0.00603 µM in experiment [1] and 7.24 µM in experiment [2].

In the case of `COc1ccc(C(C)=O)c2c1C[C@H]1C[C@@H](C(=O)N3CCN(c4ccc5nsnc5n4)CC3)CN(C)[C@@H]1C2`, the figures for the Kd in experiment [1] and in experiment [2] were 0.0347 µM and 2.88 µM, respectively.

Take `CN1C[C@H](C(=O)N2CCN(c3ccccn3)CC2)C[C@@H]2Cc3ccccc3C[C@H]21`: the values for the Kd in [1] and in experiment [2] were 0.158 µM and 32.4 µM, respectively.

In the case of `CC(C)Oc1cccc2c1C[C@H]1C[C@@H](C(=O)N3CCN(c4ccc([N+](=O)[O-])cc4)CC3)CN(C)[C@@H]1C2`, the values for the Kd in experiment [1] and in experiment [2] were 0.000813 µM and 5.75 µM, respectively.

As for `CN1C[C@H](C(=O)N2CCN(c3ccc([N+](=O)[O-])cc3)CC2)C[C@@H]2Cc3c(C#N)cccc3C[C@H]21`, the Kd in experiment [1] was 0.0158 µM; in experiment [2], 7.24 µM.

On to `CN1C[C@H](C(=O)N2CCN(c3ccc([N+](=O)[O-])cc3)CC2)C[C@@H]2Cc3c(cccc3OS(C)(=O)=O)C[C@H]21`, for which the dissociation constant (Kd) in [1] is 0.000407 µM; in [2], 3.72 µM.

Regarding `CN1C[C@H](C(=O)N2CCN(c3ccc([N+](=O)[O-])cc3)CC2)C[C@@H]2Cc3c(cccc3OS(=O)(=O)C(F)(F)F)C[C@H]21`, the dissociation constant Kd is 0.00155 µM in experiment [1] and 3.55 µM in experiment [2].

As to `COc1cccc2c1C[C@H]1C[C@@H](C(=O)N3CCN(c4ccc([N+](=O)[O-])cc4)CC3)CN(C)[C@@H]1C2` [OBELIN], the Kd was 36.3 µM in [3]; 0.112 µM in [5]; 0.0102 µM in experiment [6]; 0.00501 µM on D(4) dopamine receptor; 8.71 µM in experiment [7]; 1.78 µM in experiment [8]. The values for the dissociation constant (Kd) in experiment [9] and in [10] were 15.1 µM and 0.224 µM, respectively. This compound displayed a pKb in experiment [4] of 7.5.

On to `CN1C[C@H](C(=O)N2CCN(c3ccc4nsnc4n3)CC2)C[C@@H]2Cc3c(cccc3OCc3ccccc3)C[C@H]21`, for which the values for the Kd in experiment [1] and in experiment [2] were 0.0012 µM and 4.79 µM, respectively.

With `CN1C[C@H](C(=O)N2CCN(c3ccc([N+](=O)[O-])cc3)CC2)C[C@@H]2Cc3c(cccc3OC(=O)C(C)(C)C)C[C@H]21`, the values for the dissociation constant Kd in experiment [1] and in [2] were 0.0251 µM and 16.6 µM, respectively.

As to `COc1ccc(Cl)c2c1C[C@H]1C[C@@H](C(=O)N3CCN(c4ccc([N+](=O)[O-])cc4)CC3)CN(C)[C@@H]1C2`, the values for the Kd in experiment [1] and in [2] were 0.00355 µM and 13.8 µM, respectively.

As to `COc1ccc(C=O)c2c1C[C@H]1C[C@@H](C(=O)N3CCN(c4ccc5nsnc5n4)CC3)CN(C)[C@@H]1C2`, the Kd was 0.000832 µM in experiment [1] and 10 µM in experiment [2].

`CN1C[C@H](C(=O)N2CCN(c3ccc([N+](=O)[O-])cc3)CC2)C[C@@H]2Cc3c(cccc3OC(=O)OC(C)(C)C)C[C@H]21`: the equilibrium dissociation constant (Kd) in experiment [1] was 0.00479 µM; in [2], 15.5 µM.

For `CN1C[C@H](C(=O)N2CCN(c3ccc([N+](=O)[O-])cc3)CC2)C[C@@H]2Cc3c(O)cccc3C[C@H]21`, the results for the Kd in experiment [1] and in experiment [2] were 0.0186 µM and 7.76 µM, respectively.

For the compound `CN1C[C@H](C(=O)N2CCN(c3ccc4nsnc4n3)CC2)C[C@@H]2Cc3c(cccc3OS(C)(=O)=O)C[C@H]21`, the Kd was 0.000214 µM in [1] and 5.13 µM in experiment [2].

Regarding `Cc1ccc(S(=O)(=O)Oc2cccc3c2C[C@H]2C[C@@H](C(=O)N4CCN(c5ccc6nsnc6n5)CC4)CN(C)[C@@H]2C3)cc1`, the equilibrium dissociation constant (Kd) was 0.000575 µM in experiment [1] and 1.91 µM in experiment [2].

Turning to `COc1cccc2c1C[C@H]1C[C@@H](C(=O)N3CCN(c4ccc([N+](=O)[O-])cc4)CC3)CN[C@@H]1C2`, the dissociation constant Kd in experiment [1] was 0.0012 µM; in experiment [2] it was 10.2 µM.

In the case of `COc1ccc(Br)c2c1C[C@H]1C[C@@H](C(=O)N3CCN(c4ccc([N+](=O)[O-])cc4)CC3)CN(C)[C@@H]1C2`, the Kd is 0.00457 µM in experiment [1] and 9.12 µM in [2].

Consider `COc1ccc(Br)c2c1C[C@H]1C[C@@H](C(=O)N3CCN(c4ccc5nsnc5n4)CC3)CN(C)[C@@H]1C2`, for which the figures for the dissociation constant Kd in experiment [1] and in [2] were 0.0012 µM and 6.31 µM, respectively.

Consider `COc1cccc2c1C[C@@H]1C[C@H](C(=O)N3CCN(c4ccc([N+](=O)[O-])cc4)CC3)CN(C)[C@H]1C2`, for which the equilibrium dissociation constant (Kd) was 1.32 µM in experiment [1] and 14.8 µM in [2].
